Data reported in patent publication US20120101093A1, “SUBSTITUTED IMIDAZO[1,2-A]PYRIDINE DERIVATIVES, PHARMACEUTICAL COMPOSITIONS, AND METHODS OF USE AS BETA-SECRETASE INHIBITORS” (HIGH POINT PHARMACEUTICALS, LLC, priority 2009, published 2012).

Columns and labels:
[1] = target: T1, BACE-1 enzyme (Homo sapiens, UniProt P56817); assay: BACE Fluorescence Resonance Energy Transfer (FRET) Assay; format: biochemical; conditions: pH 4-4.5, 30 min pre-incubation, about 1.5 hours reaction
T1 construct: purchased R & D Systems 931AS
In short: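 Fluorescence (ex 540, em 585 nm) after ~1.5 h room-temperature cleavage of a quenched rhodamine peptide tracks BACE-1 activity. Enzyme and compound first sit 30 min in pH 4-4.5 acetate buffer with CHAPS, Triton X-100, EDTA, 7.5% DMSO. Values given as IC50 or % inhibition.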

[2] = test system: Aβ1-40 secreted from HEK293 cells stably expressing wildtype human APP695 protein (HEK-APPwt cells); assay: Aβ Cell Based Assay (Aβ1-40 secretion, ELISA); conditions: Homo sapiens, HEK293, 6 h, 6 hours incubation, reduction of Aβ1-40 secretion
In short: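 Cells in DMEM with 2% FBS exposed to ten compound concentrations for 6 h at 37 °C. Secreted Aβ1-40 in supernatant quantified by sandwich ELISA (82E1 capture, TMB, OD450). EC50 from percent inhibition, DAPT defining 100% inhibition, non-linear fit.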

T1 sequence (P56817 46-457 limits assumed): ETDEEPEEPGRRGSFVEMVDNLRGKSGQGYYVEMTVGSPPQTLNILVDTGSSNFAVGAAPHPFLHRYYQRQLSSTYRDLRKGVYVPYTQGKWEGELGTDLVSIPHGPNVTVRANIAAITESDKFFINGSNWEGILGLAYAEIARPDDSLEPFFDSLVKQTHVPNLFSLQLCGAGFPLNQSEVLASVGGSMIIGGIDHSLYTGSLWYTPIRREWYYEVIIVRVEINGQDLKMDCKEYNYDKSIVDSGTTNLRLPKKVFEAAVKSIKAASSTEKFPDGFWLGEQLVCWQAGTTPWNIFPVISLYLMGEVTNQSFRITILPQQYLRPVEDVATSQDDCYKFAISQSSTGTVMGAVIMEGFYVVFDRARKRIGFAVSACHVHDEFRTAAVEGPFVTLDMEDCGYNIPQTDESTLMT

IC50 [1] [µM]	SMILES	EC50 [2] [µM]
0.43	O=C(Nc1nc2cc(-c3cccc(C(F)(F)F)c3)ccc2[nH]1)c1cn2cc(F)ccc2n1 [Example 112, 6-Fluoro-imidazo[1,2-a]pyridine-2-carboxylic acid [5-(3-trifluoromethyl-phenyl)-1H-benzoimidazol-2-yl]-amide]	1.94
0.37	O=C(Nc1nc2cc(-c3cccc(C(F)(F)F)c3)ccc2[nH]1)c1cn2ccccc2n1 [Example 115, Imidazo[1,2-a]pyridine-2-carboxylic acid [5-(3-trifluoromethyl-phenyl)-1H-benzoimidazol-2-yl]-amide]	1.43
0.54	O=C(Nc1nc2cc(-c3cccc(OC(F)(F)F)c3)ccc2[nH]1)c1cn2ccccc2n1 [Example 117, Imidazo[1,2-a]pyridine-2-carboxylic acid [5-(3-trifluoromethoxy-phenyl)-1H-benzoimidazol-2-yl]-amide]	3.67
0.27	Cc1cccc2nc(C(=O)Nc3nc4cc(C5CCC(C)CC5)ccc4[nH]3)cn12 (stereo not drawn) [Example 119, 5-Methyl-imidazo[1,2-a]pyridine-2-carboxylic acid [5-(4-methyl-cyclohexyl)-1H-benzoimidazol-2-yl]-amide]	1.82
0.67	CN(C)c1cccc2nc(C(=O)Nc3nc4cc(-c5cccc(C(F)(F)F)c5)ccc4[nH]3)cn12 [Example 121, 5-Dimethylamino-imidazo[1,2-a]pyridine-2-carboxylic acid [5-(3-trifluoromethyl-phenyl)-1H-benzoimidazol-2-yl]-amide]	0.37
0.54	COCCNc1cccc2nc(C(=O)Nc3nc4cc(-c5cccc(C(F)(F)F)c5)ccc4[nH]3)cn12 [Example 122, 5-(2-Methoxy-ethylamino)-imidazo[1,2-a]pyridine-2-carboxylic acid [5-(3-trifluoromethyl-phenyl)-1H-benzoimidazol-2-yl]-amide]	1.5
2.11	O=C(Nc1nc2cc(-c3cccc(C(F)(F)F)c3)ccc2[nH]1)c1cn2c(N3CCOCC3)cccc2n1 [Example 123, 5-Morpholin-4-yl-imidazo[1,2-a]pyridine-2-carboxylic acid [5-(3-trifluoromethyl-phenyl)-1H-benzoimidazol-2-yl]-amide]	1.11
0.55	COc1ccc(-c2ccc3[nH]c(NC(=O)c4cn5c(N6CCN(C)CC6)cccc5n4)nc3c2)cc1C(F)(F)F [Example 124, 5-(4-Methyl-piperazin-1-yl)-imidazo[1,2-a]pyridine-2-carboxylic acid [5-(4-methoxy-3-trifluoromethyl-phenyl)-1H-benzoimidazol-2-yl]-amide]	3.13
0.22	COc1cc(F)cn2cc(C(=O)Nc3nc4cc(-c5cc(F)cc(Cl)c5)ccc4[nH]3)nc12 [Example 126, 6-Fluoro-8-methoxy-imidazo[1,2-a]pyridine-2-carboxylic acid [5-(3-chloro-5-fluoro-phenyl)-1H-benzoimidazol-2-yl]-amide]	1.58
0.45	COc1cc(F)cn2cc(C(=O)Nc3nc4cc(-c5cccc(C(F)(F)F)c5)ccc4[nH]3)nc12 [Example 127, 6-Fluoro-8-methoxy-imidazo[1,2-a]pyridine-2-carboxylic acid [5-(3-trifluoromethyl-phenyl)-1H-benzoimidazol-2-yl]-amide]	1.73
0.52	O=C(Nc1nc2cc(-c3cccc(C(F)(F)F)c3)ccc2[nH]1)c1cn2c(CO)cccc2n1 [Example 161, 5-Hydroxymethyl-imidazo[1,2-a]pyridine-2-carboxylic acid [5-(3-trifluoromethyl-phenyl)-1H-benzoimidazol-2-yl]-amide]	2.87
0.23	COCCNCc1cccc2nc(C(=O)Nc3nc4cc(-c5cccc(C(F)(F)F)c5)ccc4[nH]3)cn12 [Example 162, 5-[(2-Methoxy-ethylamino)-methyl]-imidazo[1,2-a]pyridine-2-carboxylic acid [5-(3-trifluoromethyl-phenyl)-1H-benzoimidazol-2-yl]-amide]	0.98
0.36	CN(C)Cc1cccc2nc(C(=O)Nc3nc4cc(-c5cccc(C(F)(F)F)c5)ccc4[nH]3)cn12 [Example 163, 5-Dimethylaminomethyl-imidazo[1,2-a]pyridine-2-carboxylic acid [5-(3-trifluoromethyl-phenyl)-1H-benzoimidazol-2-yl]-amide]	1.11
0.42	O=C(Nc1nc2cc(-c3cccc(C(F)(F)F)c3)ccc2[nH]1)c1cn2c(CN3CCOCC3)cccc2n1 [Example 165, 5-Morpholin-4-ylmethyl-imidazo[1,2-a]pyridine-2-carboxylic acid [5-(3-trifluoromethyl-phenyl)-1H-benzoimidazol-2-yl]-amide]	1.88
0.77	O=C(Nc1nc2cc(-c3cccc(C(F)(F)F)c3)ccc2[nH]1)c1cn2c(CN3CCC(O)CC3)cccc2n1 [Example 167, 5-(4-Hydroxy-piperidin-1-ylmethyl)-imidazo[1,2-a]pyridine-2-carboxylic acid [5-(3-trifluoromethyl-phenyl)-1H-benzoimidazol-2-yl]-amide]	1.54
0.42	O=C(Nc1nc2cc(-c3cccc(C(F)(F)F)c3)ccc2[nH]1)c1cn2c(CNCCN3CCOCC3)cccc2n1 [Example 169, 5-[(2-Morpholin-4-yl-ethylamino)-methyl]-imidazo[1,2-a]pyridine-2-carboxylic acid [5-(3-trifluoromethyl-phenyl)-1H-benzoimidazol-2-yl]-amide]	5.23
0.47	CNCc1cccc2nc(C(=O)Nc3nc4cc(-c5cccc(C(F)(F)F)c5)ccc4[nH]3)cn12 [Example 170, 5-Methylaminomethyl-imidazo[1,2-a]pyridine-2-carboxylic acid [5-(3-trifluoromethyl-phenyl)-1H-benzoimidazol-2-yl]-amide]	2.48
0.71	O=C(Nc1nc2cc(-c3cccc(C(F)(F)F)c3)ccc2[nH]1)c1cn2c(CNCCCO)cccc2n1 [Example 171, 5-[(3-Hydroxy-propylamino)-methyl]-imidazo[1,2-a]pyridine-2-carboxylic acid [5-(3-trifluoromethyl-phenyl)-1H-benzoimidazol-2-yl]-amide]	4.26
0.31	CC(C)(C)NCc1cccc2nc(C(=O)Nc3nc4cc(-c5cccc(C(F)(F)F)c5)ccc4[nH]3)cn12 [Example 172, 5-(tert-Butylamino-methyl)-imidazo[1,2-a]pyridine-2-carboxylic acid [5-(3-trifluoromethyl-phenyl)-1H-benzoimidazol-2-yl]-amide]	1.92
0.93	COCCCNCc1cccc2nc(C(=O)Nc3nc4cc(-c5cccc(C(F)(F)F)c5)ccc4[nH]3)cn12 [Example 174, 5-[(3-Methoxy-propylamino)-methyl]-imidazo[1,2-a]pyridine-2-carboxylic acid [5-(3-trifluoromethyl-phenyl)-1H-benzoimidazol-2-yl]-amide]	4.4
0.37	CC(C)CNCc1ccc2nc(C(=O)Nc3nc4cc(-c5cccc(C(F)(F)F)c5)ccc4[nH]3)cn2c1 [Example 176, 6-(Isobutylamino-methyl)-imidazo[1,2-a]pyridine-2-carboxylic acid [5-(3-trifluoromethyl-phenyl)-1H-benzoimidazol-2-yl]-amide]	3.91
0.3	O=C(Nc1nc2cc(-c3cccc(C(F)(F)F)c3)ccc2[nH]1)c1cn2cc(CO)ccc2n1 [Example 177, 6-Hydroxymethyl-imidazo[1,2-a]pyridine-2-carboxylic acid [5-(3-trifluoromethyl-phenyl)-1H-benzoimidazol-2-yl]-amide]	1.03
0.55	O=C(Nc1nc2cc(-c3cccc(C(F)(F)F)c3)ccc2[nH]1)c1cn2cc(CN3CCCC3)ccc2n1 [Example 179, 6-Pyrrolidin-1-ylmethyl-imidazo[1,2-a]pyridine-2-carboxylic acid [5-(3-trifluoromethyl-phenyl)-1H-benzoimidazol-2-yl]-amide]	4.74
0.46	O=C(Nc1nc2cc(-c3cccc(C(F)(F)F)c3)ccc2[nH]1)c1cn2cc(CN3CCOCC3)ccc2n1 [Example 182, 6-Morpholin-4-ylmethyl-imidazo[1,2-a]pyridine-2-carboxylic acid [5-(3-trifluoromethyl-phenyl)-1H-benzoimidazol-2-yl]-amide]	0.54
0.83	CC(C)CN(C)Cc1ccc2nc(C(=O)Nc3nc4cc(-c5cccc(C(F)(F)F)c5)ccc4[nH]3)cn2c1 [Example 184, 6-[(Isobutyl-methyl-amino)-methyl]-imidazo[1,2-a]pyridine-2-carboxylic acid [5-(3-trifluoromethyl-phenyl)-1H-benzoimidazol-2-yl]-amide]	4.32
0.62	CN(Cc1ccccc1)Cc1ccc2nc(C(=O)Nc3nc4cc(-c5cccc(C(F)(F)F)c5)ccc4[nH]3)cn2c1 [Example 185, 6-[(Benzyl-methyl-amino)-methyl]-imidazo[1,2-a]pyridine-2-carboxylic acid [5-(3-trifluoromethyl-phenyl)-1H-benzoimidazol-2-yl]-amide]	1.93
0.69	CCN(C)Cc1ccc2nc(C(=O)Nc3nc4cc(-c5cccc(C(F)(F)F)c5)ccc4[nH]3)cn2c1 [Example 188, 6-[(Ethyl-methyl-amino)-methyl]-imidazo[1,2-a]pyridine-2-carboxylic acid [5-(3-trifluoromethyl-phenyl)-1H-benzoimidazol-2-yl]-amide]	3.6
